# Experimental data as given in patent US20060264508A1, “Modulation of ocular growth and myopia by gaba drugs” (priority 2001, published 2006).
# “And” between values parts separate entries of the source, which are not always exact repeats. Identical values can stand only once. “Also recorded” adds a separate entry of the source. Counter-ions that a name gives are not always drawn. Like-named read-outs stand apart in the source and are kept apart here.
# Columns and labels:
# [1] = tested on: goggled eyes (form-deprivation myopia); details: daily intravitreal injection, result in words
# [2] = tested on: non-goggled eyes; assay type: in vivo, White leghorn chicks; details: for Equatorial diameter (calipers) / axial length calipers / axial length ultrasound / refraction / vitreous chamber depth (ultrasound): daily intravitreal dose(s) at which drug-treated differ from contralateral vehicle-treated eyes (P<0.05, Tukey test); for effect on lens thickness / anterior chamber depth, drug-treated vs vehicle-treated eyes: primary outcome comparison
# Description: Chicks were anesthetized with inhalation ether for all goggle applications and drug injections. The experimental eye was the right eye in half of the chicks, and the left eye in the other half of the chicks, assigned in an alternating order within each group. Form-deprivation myopia was induced by attaching a unilateral translucent white plastic goggle to the periorbital feathers with cyanoacrylate glue. All research conformed with the ARVO Resolution on the Use of Animals in Ophthalmic and Vision Research.
# All goggle applications and/or drug injections began when the chicks reached one week of age. At about four hours into the light phase, a 10 μl intravitreal injection of either drug+vehicle or vehicle alone was given under aseptic conditions to the goggled or experimental non-goggled eye, with all contralateral eyes concurrently receiving vehicle injections.
# On this day, the animals received no intraocular injections. […] While still under general anesthesia, the chicks were decapitated; and the axial and equatorial dimensions of enucleated eyes were measured with digital calipers. As the coronal profile of the chick eye is elliptical, the equatorial dimension was reported as the mean of the shortest and longest equatorial dimensions.
# For goggled chicks, the primary measure of outcome was the drug effect on the ocular response to wearing a goggle, and comparisons of individual doses to each other and to vehicle-treated controls for each drug. Differences in refraction and each size measurement between goggled and contralateral eyes were assessed by one-way analysis of variance (ANOVA). For non-goggled chicks, the primary outcome measure was comparison of drug-treated to contralateral vehicle-treated eyes using a two-way repeated measures ANOVA (one factor replication, using eye as the replicated factor) for refractions and measurements.
# The statistical outcomes with the two-way ANOVA are mainly described by the drug-treated to contralateral eye comparison. […] When the ANOVA assumptions of normality or equal variance were not met, the corresponding ANOVA on ranks was used. […] The Figures show the P values when the overall ANOVA reached a significance level of at least P<0.05, and the post-hoc tests for within group comparisons appear in the Tables that follow.
# [3] = non-goggled eyes, drug-treated vs contralateral vehicle-treated eyes, result in words
# [4] = non-goggled chicks receiving the 10 μg dose, mean±S.E.M.
# [5] = non-goggled chicks, 10 μg dose, mean±S.E.M.
# [6] = non-goggled chicks, contralateral vehicle-treated eyes
# [7] = non-goggled chicks, drug-treated eyes
# [8] = non-goggled eyes, result in words
# [9] = non-goggled eyes, drug-treated vs contralateral vehicle-treated eyes, result in words, listed as muscimol, hydrobromide
Structure (SMILES),"effect on axial dimensions (axial length, vitreous chamber depth; ultrasound or calipers) of goggled eyes [1]",effect on myopic refraction of goggled eyes [1],overall effect on form-deprivation myopia (refraction and size measurements) of goggled eyes [1],Equatorial diameter (calipers) ([2]; non-goggled eyes),axial length calipers ([2]; non-goggled eyes),axial length ultrasound ([2]; non-goggled eyes),refraction ([2]; non-goggled eyes),vitreous chamber depth (ultrasound) ([2]; non-goggled eyes),"effect on axial growth / axial length and vitreous chamber depth of non-goggled eyes [2, 3]","effect on refraction of non-goggled eyes [2, 3]",effect on equatorial diameter / equatorial expansion of goggled eyes (calipers) [1],"effect on equatorial diameter of non-goggled eyes [2, 3]",other results
"NCC(O)(CS(=O)(=O)O)c1ccc(Cl)cc1 (centres unmarked) [2OH-saclofen, 2-hydroxysaclofen]",none of the tendencies of either drug to reduce ocular dimensions by ultrasound or calipers reached statistical significance,reduced the myopic refractions,,,,,,,,,,,
"NC[C@H](CC(=O)O)c1ccc(Cl)cc1 [Baclofen, R(+)-baclofen]",neither the ultrasound nor the caliper measurements revealed statistically significant growth inhibition,partially reduced the myopic refractive error,weak anti-myopia effect,"n.s. (n.s., P ≧ 0.05 by ANOVA)","* (P < 0.05 by ANOVA for drug-treated vs. contralateral eyes, but no specific pair-wise comparison identified by the Tukey test.)","n.s. (n.s., P ≧ 0.05 by ANOVA)","n.s. (n.s., P ≧ 0.05 by ANOVA)",100 µg,modest deepening of the vitreous chamber,"None of the other effects of baclofen on the non-goggled eyes, including refractions (data not shown), reached statistical significance",,,
"NC/C=C\C(=O)O [CACA, cis-4-aminocrotomc acid]",not accompanied by any statistically identifiable changes in axial measurements,"modest, perhaps biphasic effect",none of the size measurements were altered,"n.s. (n.s., P ≧ 0.05 by ANOVA)","n.s. (n.s., P ≧ 0.05 by ANOVA)",50 µg,"n.s. (n.s., P ≧ 0.05 by ANOVA)","n.s. (n.s., P ≧ 0.05 by ANOVA)",slightly stimulated axial length by ultrasound; also recorded: stimulate axial growth to a modest degree,not affecting refraction; also recorded: without altering refraction,no change in the equatorial dimension,without altering refraction or affecting equatorial diameter,"anterior chamber depth of contralateral vehicle-treated eyes [2, 4]: 1.31±0.03 mm; lens thickness of contralateral vehicle-treated eyes [2, 4]: 2.22±0.02 mm; anterior chamber depth of drug-treated eyes [2, 5]: 1.32±0.03 mm; lens thickness of drug-treated eyes [2, 5]: 2.22±0.02 mm; lens thinner in contralateral vehicle-treated eyes at 10 μg than in the other two cohorts (100 or 200 μg) [2, 6]: 0.10 mm; anterior chambers deeper at the 10 μg dose than at the higher doses ([2]; non-goggled chicks, drug- and vehicle-treated eyes, vs 50, 100 or 200 μg): 0.08-0.14 mm; lens thinner in drug-treated eyes at 10 μg than at the 100 or 200 μg doses [2, 7]: 0.16 mm; effect on lens thickness / anterior chamber depth, drug-treated vs vehicle-treated eyes [2, 8]: did not affect lens thickness or anterior chamber depth"
"CCOC(OCC)P(=O)(O)CCCN [CGP35348, (3-aminopropyl)(diethoxy-methyl)phosphinic acid]",,,no statistical effect,,,,,,,,,,
"NCCCP(=O)(O)CC1CCCCC1 [CGP46381, (3-aminopropyl)(cyclo-hexylmethyl)phosphinic acid]","inhibited the myopic refractive shift, the axial and vitreous chamber elongation",inhibited the myopic refractive shift,potent anti-myopia effects; also recorded: inhibiting myopia and limiting axial vitreous chamber and equatorial expansion,"n.s. (n.s., P ≧ 0.05 by ANOVA)","n.s. (n.s., P ≧ 0.05 by ANOVA)","n.s. (n.s., P ≧ 0.05 by ANOVA)",,100 µg,slightly enhanced vitreous chamber length,did not exert statistically identifiable changes,"inhibited the myopic refractive shift, the axial and vitreous chamber elongation, and the equatorial expansion",did not exert statistically identifiable changes,"lens thickness of contralateral vehicle-treated eyes [2, 4]: 2.26±0.03 mm; lens thickness of drug-treated eyes [2, 5]: 2.27±0.04 mm; lens thicker in vehicle-treated eyes at 10 μg than at the 100 μg dose [2, 6]: 0.06 mm; lens thicker in drug-treated eyes at 10 μg than at the 100 μg dose [2, 7]: 0.07 mm; effect on lens thickness / anterior chamber depth, drug-treated vs vehicle-treated eyes [2, 8]: no influence on lens thickness"
"NCc1cc(=O)[nH]o1 [Muscimol, Muscimol hydrobromide]",,,"did not affect refraction, ultrasound or caliper measurements",,,,,,,,,,"refraction of contralateral vehicle-treated eyes ([2]; non-goggled chicks, 5 μg daily dose to the other eye, mean±S.E.M.): 0.86±0.58 D; refraction of contralateral vehicle-treated eyes ([2]; non-goggled chicks, 10 μg daily dose to the other eye, mean±S.E.M.): +0.11±0.82 D; refraction of contralateral vehicle-treated eyes ([2]; non-goggled chicks, 50 μg daily dose to the other eye, mean±S.E.M.): 1.78±1.21 D; refraction of contralateral vehicle-treated eyes ([2]; non-goggled chicks, 200 μg daily dose to the other eye, mean±S.E.M.): 3.82±0.83 D; dose of maximum effect on refraction (shift to myopia) of non-goggled eyes ([2]; non-goggled eyes, daily intravitreal injection): 50 µg; effect on refraction of non-goggled eyes ([2]; non-goggled eyes, drug-treated vs contralateral vehicle-treated eyes, result in words, hydrobromide): induces a statistically significant myopic shift in refraction; effect on axial growth / axial length and vitreous chamber depth of non-goggled eyes [2, 9]: stimulated axial growth as measured by either ultrasound or calipers, and deepened the vitreous chamber; also recorded: increasing not only axial and vitreous chamber lengths; effect on equatorial diameter of non-goggled eyes [2, 9]: increased the equatorial diameter; also recorded: expanding the equatorial diameter; effect on refraction of non-goggled eyes [2, 9]: shifted the refraction to myopia; also recorded: statistically significant shift in refraction"
"CC1(C)CO[C@@H](CC(=O)O)CN1 [SCH50911, (+)-(2S)-5,5-dimethyl-2-morpholineacetic acid]",none of the tendencies of either drug to reduce ocular dimensions by ultrasound or calipers reached statistical significance,reduced the myopic refractions,,,,,,,,,,,
"NC/C=C/C(=O)O [TACA, Trans-4-aminocrotonic acid]",,,no statistically significant effects,,,,,,,,,,"overall effect on refraction and ocular size / eye growth of non-goggled eyes [2, 3]: influenced neither refraction nor ocular size measurements"
"CP(=O)(O)C1=CCNCC1 [TPMPA, (1,2,5,6-tetraliydro-pyridine-4-yl) methyiphosphinic acid]","blocked the axial and vitreous chamber elongation as measured by ultrasound; also recorded: effects on axial growth as measured by calipers, did not reach statistical significance; also recorded: significantly reduces the axial length of the eye and vitreous chamber depth",reduced the myopic refraction; also recorded: largely eliminates the myopic refractive shift,potent anti-myopia effects,,200 & μg and 100 μg,10 µg,"§ (P < 0.05 by ANOVA for overall dose effect, but no significant effect identified for drug-treated vs. contralateral eyes; no specific pairwise comparison identified by the Tukey test.)","* (P < 0.05 by ANOVA for drug-treated vs. contralateral eyes, but no specific pair-wise comparison identified by the Tukey test.)",stimulated both axial growth and vitreous chamber length; also recorded: stimulates axial elongation and vitreous chamber depth,slight myopic refractive shift; also recorded: without altering refraction,"blocked the axial and vitreous chamber elongation as measured by ultrasound, and the equatorial expansion",reduced the equatorial diameter; also recorded: equatorial dimension actually diminished,
